# Activity calls are given as the source filed them. The calls are words filed in the database; no cut-off is given here.
# Assays:
# [1] = test system: SW620/5-FU; test: Downregulation of DPD expression level in human SW620/5-FU cells measured after 12 hrs by Western blot analysis; format: functional, cell-based; conditions: dose 5-40 µM, DDE = dose-dependent effect
# [2] = test system: SW620/5-FU; test: Downregulation of DPD expression in human SW620/5-FU cells at 10 uM by Western blot analysis; format: functional, cell-based; conditions: time 4-48 hrs, TDE = time-dependent effect
# [3] = Apparent volume of distribution in Sprague-Dawley rat blood at 1 mg/kg, iv measured up to 24 hrs by HPLC-MS/MS analysis; format: ADME, organism-based; conditions: read-out: Vd(app)
# [4] = Toxicity in SPF nude mouse xenografted with DPD expressed human HCT-116 cells assessed as change in body weight at 15 mg/kg, iv QD for 20 days and measured every 4 days; format: organism-based; conditions: in vivo, 480 h, time 20 day
# [5] = Toxicity in SPF nude mouse xenografted with human SW620/5-FU cells assessed as change in body weight at 7.5 mg/kg, iv QD for 21 days and measured every 4 days in presence of 5-fluorouracil; format: organism-based; conditions: in vivo, 504 h, time 21 day
# [6] = test system: SW620/5-FU; test: Antitumor activity against human SW620/5-FU cells xenografted in SPF nude mouse assessed as tumor growth inhibition at 15 mg/kg, iv QD for 21 days and measured every 4 days; format: functional; conditions: 504 h, time 21 day, read-out: TGI
# [7] = test system: SW620/5-FU; test: Antitumor activity against human SW620/5-FU cells xenografted in SPF nude mouse assessed as tumor growth inhibition at 7.5 mg/kg, iv QD for 21 days and measured every 4 days; format: functional; conditions: 504 h, time 21 day, read-out: TGI
# [8] = test system: SW620/5-FU; test: Antitumor activity against human SW620/5-FU cells xenografted in SPF nude mouse assessed as tumor growth inhibition at 7.5 mg/kg, iv QD for 21 days and measured every 4 days in presence of 5-fluorouracil; format: functional; conditions: 504 h, time 21 day, read-out: TGI
# [9] = test system: SW620/5-FU; test: Antitumor activity against human SW620/5-FU cells xenografted in SPF nude mouse assessed as tumor growth inhibition at 30 mg/kg, iv QD for 21 days and measured every 4 days in presence of 5-fluorouracil; format: functional; conditions: 504 h, time 21 day, read-out: TGI
# [10] = test system: SW620/5-FU; test: Antitumor activity against human SW620/5-FU cells xenografted in SPF nude mouse assessed as reduction in tumor weight at 30 mg/kg, iv QD for 21 days in presence of 5-fluorouracil; format: functional; design: scale not given: the % may be the effect or the level left; conditions: time 21 day
# [11] = test system: Mus musculus; test: Downregulation of S1PR2 expression in tumor SPF nude mouse xenografted with human SW620/5-FU cells at 7.5 to 15 mg/kg, iv QD for 21 days by immunohistochemical analysis; format: functional, organism-based; conditions: dose 7.5-15 mg/kg, time 21.0 day
structure (smiles),measurement,setting,value
Cn1ncc2c(-c3ccc(F)cc3)cc(NNC(=O)Nc3cc(Cl)nc(Cl)c3)nc21,Activity,[1],Dde
same,Activity,[2],Tde
same,Vd,[3],1.8 L/kg
same,Activity,[4],Non-Toxic
same,Activity,[5],Non-Toxic
same,inhibition in vivo at 15 mg/kg,[6],28.5%
same,inhibition in vivo at 7.5 mg/kg,[7],14.7%
same,inhibition in vivo at 7.5 mg/kg,[8],43.2%
same,inhibition in vivo at 30 mg/kg,[9],62.1%
same,Activity,[10],60.81%
same,Activity,[11],Active
